Test results taken from the supplement of paper PMC10307832.

Key:
Experiment in all cases: relative viability (nuclei count vs DMSO), 5 days (fraction); higher = more cells survive
NCI-H1993 = tested on: NCI-H1993
How it was run: (§1)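 Dosing by pin tool came one day after lung cancer cell lines were seeded in 1536-well plates, using either one drug or a fixed anchor-drug dose plus five library-drug doses (not always all listed) in √10 steps. After 5 days, nuclei were counted on 4× images. Relative viability is treated-well nuclei count divided by vehicle-well nuclei count, and values are medians of duplicate plates.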

PC-3 [JPC-3] = tested on: PC-3 [JPC-3]
How it was run: as §1

NCI-H1975 = tested on: NCI-H1975
How it was run: as §1

HCC-15 = tested on: HCC-15
How it was run: as §1

LU99A = tested on: LU99A
How it was run: as §1

NCI-H838 = tested on: NCI-H838
How it was run: as §1

LC-2-ad = tested on: LC-2-ad
How it was run: as §1

HARA = tested on: HARA
How it was run: as §1

NCI-H1734 = tested on: NCI-H1734
How it was run: as §1

NCI-H1944 = tested on: NCI-H1944
How it was run: as §1

NCI-H1666 = tested on: NCI-H1666
How it was run: as §1

NCI-H2228 = tested on: NCI-H2228
How it was run: as §1

NCI-H1395 = tested on: NCI-H1395
How it was run: as §1

NCI-H3122 = tested on: NCI-H3122
How it was run: as §1

NCI-H661 = tested on: NCI-H661
How it was run: as §1

CAL-12T = tested on: CAL-12T
How it was run: as §1

H3255 = tested on: H3255
How it was run: as §1

NCI-H520 = tested on: NCI-H520
How it was run: as §1

COR-L 105 = tested on: COR-L 105
How it was run: as §1

PC-14 = tested on: PC-14
How it was run: as §1

NCI-H647 = tested on: NCI-H647
How it was run: as §1

SK-LU-1 = tested on: SK-LU-1
How it was run: as §1

Question: How did the relative viability (NCI-H1993; first compound 5 µM) turn out when O=C(O)CCCCC(CCSCc1ccccc1)SCc1ccccc1 (stereo not drawn) [CPI-613] + CCNC(=O)c1noc(-c2cc(C(C)C)c(O)cc2O)c1-c1ccc(CN2CCOCC2)cc1 [Luminespib] (partner 0.01 µM) was run?
Answer: 0.799

Question: And the relative viability (NCI-H1993; first compound 15.81 µM)?
Answer: 0.296

Question: And the relative viability (NCI-H1993; first compound 50 µM)?
Answer: 0.917

Question: What about the relative viability (NCI-H1993; first compound 158.11 µM) of the same compound?
Answer: 0.611

Question: What about the relative viability (NCI-H1993; first compound 500 µM) of the same compound?
Answer: 0.437

Question: What about the relative viability (PC-3 [JPC-3]; first compound 5 µM) of the same compound?
Answer: 0.594

Question: What about the relative viability (PC-3 [JPC-3]; first compound 15.81 µM) of the same compound?
Answer: 0.578

Question: And the relative viability (PC-3 [JPC-3]; first compound 50 µM)?
Answer: 0.627

Question: And the relative viability (PC-3 [JPC-3]; first compound 158.11 µM)?
Answer: 0.563

Question: And the relative viability (PC-3 [JPC-3]; first compound 500 µM)?
Answer: 0.48

Question: What about the relative viability (NCI-H1975; first compound 5 µM) of the same compound?
Answer: 0.173

Question: What about the relative viability (NCI-H1975; first compound 15.81 µM) of the same compound?
Answer: 0.171

Question: And the relative viability (NCI-H1975; first compound 50 µM)?
Answer: 0.194

Question: What about the relative viability (NCI-H1975; first compound 158.11 µM) of the same compound?
Answer: 0.141

Question: And the relative viability (NCI-H1975; first compound 500 µM)?
Answer: 0.28

Question: And the relative viability (HCC-15; first compound 5 µM)?
Answer: 0.297

Question: What about the relative viability (HCC-15; first compound 15.81 µM) of the same compound?
Answer: 0.424

Question: What about the relative viability (HCC-15; first compound 50 µM) of the same compound?
Answer: 0.304

Question: What about the relative viability (HCC-15; first compound 158.11 µM) of the same compound?
Answer: 0.0775

Question: And the relative viability (HCC-15; first compound 500 µM)?
Answer: 0.0498

Question: What about the relative viability (LU99A; first compound 5 µM) of the same compound?
Answer: 0.296

Question: And the relative viability (LU99A; first compound 15.81 µM)?
Answer: 0.222

Question: What about the relative viability (LU99A; first compound 50 µM) of the same compound?
Answer: 0.243

Question: And the relative viability (LU99A; first compound 158.11 µM)?
Answer: 0.159

Question: What about the relative viability (LU99A; first compound 500 µM) of the same compound?
Answer: 0.115

Question: And the relative viability (NCI-H838; first compound 5 µM)?
Answer: 0.249

Question: What about the relative viability (NCI-H838; first compound 15.81 µM) of the same compound?
Answer: 0.243

Question: What about the relative viability (NCI-H838; first compound 50 µM) of the same compound?
Answer: 0.24

Question: And the relative viability (NCI-H838; first compound 158.11 µM)?
Answer: 0.122

Question: What about the relative viability (NCI-H838; first compound 500 µM) of the same compound?
Answer: 0.0891

Question: What about the relative viability (LC-2-ad; first compound 5 µM) of the same compound?
Answer: 1.02

Question: What about the relative viability (LC-2-ad; first compound 15.81 µM) of the same compound?
Answer: 0.958

Question: And the relative viability (LC-2-ad; first compound 50 µM)?
Answer: 0.847

Question: And the relative viability (LC-2-ad; first compound 158.11 µM)?
Answer: 0.235

Question: And the relative viability (LC-2-ad; first compound 500 µM)?
Answer: 0.0688

Question: And the relative viability (HARA; first compound 15.81 µM)?
Answer: 0.635

Question: And the relative viability (HARA; first compound 50 µM)?
Answer: 0.757

Question: What about the relative viability (HARA; first compound 158.11 µM) of the same compound?
Answer: 0.297

Question: And the relative viability (HARA; first compound 500 µM)?
Answer: 0.0024

Question: And the relative viability (NCI-H1734; first compound 5 µM)?
Answer: 0.197

Question: What about the relative viability (NCI-H1734; first compound 15.81 µM) of the same compound?
Answer: 0.194

Question: And the relative viability (NCI-H1734; first compound 50 µM)?
Answer: 0.164

Question: What about the relative viability (NCI-H1734; first compound 158.11 µM) of the same compound?
Answer: 0.165

Question: And the relative viability (NCI-H1734; first compound 500 µM)?
Answer: 0.107

Question: And the relative viability (NCI-H1944; first compound 5 µM)?
Answer: 0.748

Question: What about the relative viability (NCI-H1944; first compound 15.81 µM) of the same compound?
Answer: 0.701

Question: And the relative viability (NCI-H1944; first compound 50 µM)?
Answer: 0.757

Question: What about the relative viability (NCI-H1944; first compound 158.11 µM) of the same compound?
Answer: 0.409

Question: And the relative viability (NCI-H1944; first compound 500 µM)?
Answer: 0.0599

Question: What about the relative viability (NCI-H1666; first compound 5 µM) of the same compound?
Answer: 0.992

Question: What about the relative viability (NCI-H1666; first compound 15.81 µM) of the same compound?
Answer: 1.01

Question: And the relative viability (NCI-H1666; first compound 50 µM)?
Answer: 1.12

Question: And the relative viability (NCI-H1666; first compound 158.11 µM)?
Answer: 0.223

Question: And the relative viability (NCI-H1666; first compound 500 µM)?
Answer: 0.131

Question: What about the relative viability (NCI-H2228; first compound 5 µM) of the same compound?
Answer: 0.145

Question: What about the relative viability (NCI-H2228; first compound 15.81 µM) of the same compound?
Answer: 0.205

Question: And the relative viability (NCI-H2228; first compound 50 µM)?
Answer: 0.137

Question: And the relative viability (NCI-H2228; first compound 158.11 µM)?
Answer: 0.141

Question: And the relative viability (NCI-H2228; first compound 500 µM)?
Answer: 0.0612

Question: And the relative viability (NCI-H1395; first compound 5 µM)?
Answer: 0.672

Question: And the relative viability (NCI-H1395; first compound 15.81 µM)?
Answer: 0.828

Question: What about the relative viability (NCI-H1395; first compound 50 µM) of the same compound?
Answer: 0.749

Question: What about the relative viability (NCI-H1395; first compound 158.11 µM) of the same compound?
Answer: 0.665

Question: What about the relative viability (NCI-H1395; first compound 500 µM) of the same compound?
Answer: 0.659

Question: And the relative viability (NCI-H3122; first compound 5 µM)?
Answer: 0.0787

Question: What about the relative viability (NCI-H3122; first compound 15.81 µM) of the same compound?
Answer: 0.088

Question: And the relative viability (NCI-H3122; first compound 50 µM)?
Answer: 0.0889

Question: And the relative viability (NCI-H3122; first compound 158.11 µM)?
Answer: 0.0798

Question: What about the relative viability (NCI-H3122; first compound 500 µM) of the same compound?
Answer: 0.0712

Question: And the relative viability (NCI-H661; first compound 5 µM)?
Answer: 0.887

Question: What about the relative viability (NCI-H661; first compound 15.81 µM) of the same compound?
Answer: 0.904

Question: And the relative viability (NCI-H661; first compound 50 µM)?
Answer: 0.916

Question: And the relative viability (NCI-H661; first compound 158.11 µM)?
Answer: 0.468

Question: What about the relative viability (NCI-H661; first compound 500 µM) of the same compound?
Answer: 0.141

Question: And the relative viability (CAL-12T; first compound 5 µM)?
Answer: 0.349

Question: What about the relative viability (CAL-12T; first compound 15.81 µM) of the same compound?
Answer: 0.325

Question: And the relative viability (CAL-12T; first compound 50 µM)?
Answer: 0.377

Question: What about the relative viability (CAL-12T; first compound 158.11 µM) of the same compound?
Answer: 0.0292

Question: And the relative viability (CAL-12T; first compound 500 µM)?
Answer: 0.0074

Question: What about the relative viability (H3255; first compound 5 µM) of the same compound?
Answer: 0.822

Question: What about the relative viability (H3255; first compound 15.81 µM) of the same compound?
Answer: 0.802

Question: What about the relative viability (H3255; first compound 50 µM) of the same compound?
Answer: 0.879

Question: And the relative viability (H3255; first compound 500 µM)?
Answer: 0.878

Question: What about the relative viability (NCI-H520; first compound 5 µM) of the same compound?
Answer: 0.196

Question: And the relative viability (NCI-H520; first compound 15.81 µM)?
Answer: 0.204

Question: What about the relative viability (NCI-H520; first compound 50 µM) of the same compound?
Answer: 0.214

Question: And the relative viability (NCI-H520; first compound 158.11 µM)?
Answer: 0.197

Question: And the relative viability (NCI-H520; first compound 500 µM)?
Answer: 0.181

Question: What about the relative viability (COR-L 105; first compound 5 µM) of the same compound?
Answer: 0.749

Question: And the relative viability (COR-L 105; first compound 15.81 µM)?
Answer: 0.727

Question: What about the relative viability (COR-L 105; first compound 50 µM) of the same compound?
Answer: 0.692

Question: What about the relative viability (COR-L 105; first compound 158.11 µM) of the same compound?
Answer: 0.421

Question: What about the relative viability (COR-L 105; first compound 500 µM) of the same compound?
Answer: 0.127

Question: What about the relative viability (PC-14; first compound 5 µM) of the same compound?
Answer: 0.158

Question: And the relative viability (PC-14; first compound 15.81 µM)?
Answer: 0.185

Question: And the relative viability (PC-14; first compound 50 µM)?
Answer: 0.167

Question: What about the relative viability (PC-14; first compound 158.11 µM) of the same compound?
Answer: 0.129

Question: What about the relative viability (PC-14; first compound 500 µM) of the same compound?
Answer: 0.0407

Question: What about the relative viability (NCI-H647; first compound 5 µM) of the same compound?
Answer: 0.133

Question: What about the relative viability (NCI-H647; first compound 15.81 µM) of the same compound?
Answer: 0.152

Question: And the relative viability (NCI-H647; first compound 50 µM)?
Answer: 0.113

Question: And the relative viability (NCI-H647; first compound 158.11 µM)?
Answer: 0.144

Question: And the relative viability (NCI-H647; first compound 500 µM)?
Answer: 0.119

Question: What about the relative viability (SK-LU-1; first compound 5 µM) of the same compound?
Answer: 0.205

Question: And the relative viability (SK-LU-1; first compound 15.81 µM)?
Answer: 0.2

Question: And the relative viability (SK-LU-1; first compound 50 µM)?
Answer: 0.198

Question: And the relative viability (SK-LU-1; first compound 158.11 µM)?
Answer: 0.128

Question: What about the relative viability (SK-LU-1; first compound 500 µM) of the same compound?
Answer: 0.101
